System: panel
Test: Panel comparison of carbonated lemonade with and without test substance (Example 3)
Assay type: in vivo
Details: 0.03 wt.% of spray dried sample of Example 2 in carbonated lemonade (10% sugar, 1200 ppm citric acid, 100 ppm ascorbic acid, pH 3)
Experimental: A basic carbonated lemonade containing 10% sugar, 1200 ppm citric acid and 100 ppm ascorbic acid, was prepared. The pH of the lemonade was 3. This was used as the control. To the test lemonade the spray dried sample described in Example 2 was added in an amount of 0.03 wt. %. The two lemonades were compared by a panel.

Structure (SMILES): CC(O)C(=O)NCCOP(=O)(O)O (stereo not shown) [N-lactoyl-ethanolaminie-phosphate, N-Lactoyl ethanolamine phosphate]
- taste description of lemonade compared with control: more acidic, more natural, more juicy, more complex

From patent publication US8778437B2, “Taste improving substances” (Givaudan Nederland Services B.V., priority 2004, dated 2014)
